From article PMC12040169 (PLOS Biology, 2025)

Assay: in vitro
Conditions: human, hela cells, % viability

Structure (SMILES)	viability at 28.5 h, 10 µM [%]	viability at 28.5 h, 10 µM (bulk resorufin, single well) [%]
Fc1ccc(Br)cc1SCCc1ccccn1 [CBK262330G]	86.7	
O=C(COc1ccc2ccccc2c1)N[C@@H](C(=O)O)c1ccc(O)cc1 [CBK286571]	88.8	
O=C1NC2(CCc3ccccc31)CCN(C(=O)c1ccc(F)cc1)C2 (stereo not drawn) [CBK285308]	102	
CC(C)c1cccc(C(C)C)c1OCCNCCO [CBK262750]	89.3	
Cc1nc2ccc(C(=O)NC(c3ccccc3)c3cccnc3)cc2[nH]1 (stereo not drawn) [CBK283259]	103	
Nc1nnnn1CC(=O)N/N=C/c1cc2c(cc1[N+](=O)[O-])OCO2 [CBK262187]	117	
O=C1NCC2(C/C=C/CCOc3ccccc31)CCN(C(=O)Cc1cccc(F)c1)CC2 [CBK292015]	81	
C#CCN1CC[C@]2(c3ccc(OC)c(OC)c3)CC[C@@H](NC(=O)Nc3ccc(F)c(F)c3)C[C@H]12 [CBK056657]	104	
Nc1ncc(-c2ccco2)nc1NCC1CCOCC1 [CBK063825]	100	
O=C(O)CN(c1ccc2c(c1)OCCO2)S(=O)(=O)c1ccccc1 [CBK268017]	115	
Cc1cc(CNS(=O)(=O)N2CCCC2)c2[nH]c(C)c(C)c2c1 [CBK282772]	95.1	
Cc1ccc(NC(=O)C(=O)NCCCn2ccnc2)cc1Cl [CBK264238]	92.2	
O=C(NCc1cccs1)c1ccc(-c2ccc(OC(F)(F)F)cc2)nc1 [CBK156221]	90	
CCC(C)NC(=O)Cn1cccc2cc(C3CCCNC3)nc1-2 (stereo not drawn) [CBK285087]	98.2	
CN(C)CCN(C)c1cncc(-c2cccc(/C=C/C(=O)O)c2)n1 [CBK065451]	99.5	
Cc1[nH]c2c(C)cccc2c1CC(=O)NC1CCCN(C)C1 (stereo not drawn) [CBK282485]	74.1	
COc1cc(/C=C2/NC(=O)N(c3cccc(Cl)c3)C2=O)ccc1OCC(=O)Nc1ccc(F)cc1 [CBK265691]	93	
CN(CCOc1ccccc1)c1cc(C2CC(N)C2)nc(N)n1 (stereo not drawn) [CBK306849]	97	
O=C(Cc1ccccc1)Nc1ccccc1C(=O)NCc1cccnc1 [CBK269228]	96.1	
Cc1cc(C)nc(NC(=O)OCCN2CCN(C)CC2)c1 [CBK138235]	92.2	
Cc1ccccc1CNC(=O)CCc1c(C)nc2nc(N)nn2c1C [CBK304987]	108	

Structure (SMILES)	viability at 28.5 h, 10 µM [%]	viability at 28.5 h, 10 µM (bulk resorufin, single well) [%]
O=C(NCCN1CCOCC1)c1cc(-c2ccc(F)cc2)nc2ccc(Br)cc12 [CBK294450]	89.9	
CCC(C(=O)c1c[nH]c2ccc(OC)cc12)N(C)C (stereo not drawn) [CBK022923]		96
O=C(CSc1ccccc1)Nc1cc(Cl)ccc1O [CBK265837]	109	
Cn1c(N2CCOCC2)nc2cc(C(=O)NCCn3cccn3)ccc21 [CBK307033]	87.5	
O=C(Nc1cccc(O)c1)c1ccc2c(c1)C(=O)N(c1cccc(N3C(=O)c4ccc(C(=O)Nc5cccc(O)c5)cc4C3=O)n1)C2=O [CBK261199]	89.8	
CCn1c(=O)n(CC(=O)N(C)C2CCCCC2)c2cccnc21 [CBK283786]	86.3	
COc1ccc(CCNS(=O)(=O)c2cc([N+](=O)[O-])ccc2C)cc1OC [CBK267412]	94.2	
Cc1cc(NCC2(CO)CCOCC2)nc(N2CCCC2)n1 [CBK307005]	85.8	
CCOC(=O)c1nc(N)c2c(CC#N)nn(C)c2n1 [CBK023254]	109	
Cc1cccc(OCCCC(=O)Nc2ccc(S(N)(=O)=O)cc2)c1C [CBK267963]	90.8	
COC(=O)c1c(O)noc1C [CBK023348]	95.6	
CCOc1cc2c(cc1OCC)C(c1ccc(OC)c(O)c1)NCC2 (stereo not drawn) [CBK074443C]	88.7	
COc1cc(C(F)(F)F)c(-c2ncn[nH]2)cn1 [CBK006362]	101	
O=c1c(N2CCC(Sc3ccccc3)CC2)nccn1Cc1ccc(OC(F)(F)F)cc1 [CBK155257]	94.7	
c1ccc(CCNC2CCCc3c2[nH]c2ccc(C4CCCCC4)cc32)cc1 (stereo not drawn) [CBK261602C]	90.7	
CN1C(=O)C2(CC(=O)N(Cc3ccccc3)C2=O)c2cc(F)ccc21 (stereo not drawn) [CBK075268]	98.6	
Cc1noc(C)c1CC(=O)NCc1ccc(CN2CCCCC2)cc1 [CBK281422]	93.6	
COc1ccc(Cl)cc1NC(=O)Cn1nc(-c2ccccc2)ccc1=O [CBK270124]	85.1	
Cc1ccc(NC(=O)CCC(=O)O)c(C(=O)c2ccccc2)c1 [CBK262611]	108	
Cn1ccnc1C1(O)CC2CCC(C1)N2C(=O)c1ccccc1F (stereo not drawn) [CBK284085]	87.4	
CN(C(=O)N1CCC(C(=O)NC(c2ccccc2)c2ccco2)CC1)c1ccccc1 (stereo not drawn) [CBK059877]	89	

Structure (SMILES)	viability at 28.5 h, 10 µM [%]	viability at 28.5 h, 10 µM (bulk resorufin, single well) [%]
O=C(CCCOc1ccc(Cl)cc1Cl)Nc1c[nH]c(=O)[nH]c1=O [CBK264235]	113	
COC(=O)[C@H](CC1CCCCC1)NS(=O)(=O)c1ccc(C(C)C)cc1 [CBK044551]	96.3	
Cn1ccnc1C1(O)CC2CCC(C1)N2C(=O)c1ccccc1Cl (stereo not drawn) [CBK284090]	99	
Cc1ccc2nsnc2c1NC(=O)CN1CCN(c2ccc(F)cc2)CC1 [CBK269231]	98.9	
CC(=O)Nc1ccc(-c2ccc(C(=O)NCC3COc4ccccc4O3)cn2)cc1 (stereo not drawn) [CBK158832]	99.3	
COCCc1noc(CC2CCN(c3ncc(C#N)cc3F)CC2)n1 [CBK304153]	115	
O=C(OCc1csc2ccc(Cl)cc12)N1CCOCC1 [CBK200164]	94.7	
CCOC(=O)N1CCN(c2cccc3[nH]c(C(=O)O)cc23)CC1 [CBK083477]	93.9	
CCN1C(=O)c2ccccc2C(=O)[C@@]2(C)CN(C(C)=O)C[C@@H]12 [CBK281686]	89.7	
O=C1CC2(CCCC2)C(=O)N1c1ccc(S(=O)(=O)NC2CCN(Cc3ccccc3)CC2)cc1Cl [CBK074650]	99.8	
O=C(Nc1nnc(-c2ccccc2)o1)c1ccc2ncsc2c1 [CBK287598]	94.4	
Cc1[nH]c(=O)[nH]c(=O)c1CC(=O)NCC1CCN(c2ccccc2F)C1 (stereo not drawn) [CBK304325]	99.7	
CC(=O)N1CCC(C(=O)NC(c2ccc3c(c2)OCO3)c2cccs2)CC1 (stereo not drawn) [CBK059881]	101	
Cc1cc(COc2nccnc2OC2CCN(CC(=O)Nc3c(C)cccc3C)CC2)no1 [CBK082958T]	103	
O=C(O)C1CCCN1S(=O)(=O)c1ccc2[nH]c(=O)c(=O)[nH]c2c1 (stereo not drawn) [CBK266971]	88.9	
C(=N\Nc1ccc2nn(-c3ccccc3)nc2c1)/c1c[nH]c2ccccc12 [CBK261064]	91.6	
CN(C)CCN(C)Cc1ccc([N+](=O)[O-])cc1 [CBK261728]	110	
O=C1NC(=S)N(Cc2ccco2)C(=O)/C1=C\c1cn(CCOc2ccc(F)cc2)c2ccccc12 [CBK265573]		80.9
CC1(C)NC(=O)N(CC(O)COc2cc3ccccc3cc2C(=O)N2CCCCC2)C1=O (stereo not drawn) [CBK019029]	120	
CCC(NC(=O)C(c1cccs1)c1cccs1)c1ccc(F)cc1 (stereo not drawn) [CBK286339]	93.4	
CC(C)NC(=O)[C@H]1CN2CCC1C[C@@H]2Cn1cc(-c2cccc(O)c2)nn1 (stereo partly drawn) [CBK288731]	91.7	
